{"source": "PubChem BioAssay AID2060906", "about": "(Molecular Pharmacology Branch, DTP, NCI, 2025);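 also: spheroids exposed to compounds for seven days before readout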;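 as to viability, T/C: luminescence viability expressed relative to DMSO vehicle wells set as 100%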", "test_system": "485176-168-R4-J1-PDC complex spheroid growth", "assay": "Anticancer human tumor 485176-168-R4-J1-PDC patient-derived pancreatic adenocarcinoma cell line growth inhibition [RAS]", "conditions": "for IC50: curve of first compound; for viability, T/C: stronger effect = lower value", "procedure,_shortened": "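Multi-cell-type spheroids: tumor cells plus HUVEC endothelial cells and mesenchymal stem cells. RAS-pathway inhibitors were combined with targeted agents, each dosed in half-log steps down from clinical Cmax, or from 10 microM when Cmax was unknown.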", "data": [{"smiles": "Cc1nc(N2CCC3(CC2)COC(C)C3N)c(CO)nc1Sc1ccnc(N)c1Cl", "note": "(centres undefined) + CCn1c(-c2cc(N3CCN(C)CC3)cnc2C(C)OC)c2c3cc(ccc31)-c1csc(n1)CC(NC(=O)C1CC1C)C(=O)N1CCCC(N1)C(=O)OCC(C)(C)C2", "values": [{"measurement": "IC50", "setting": "second compound 0.000949 µM", "value": "> 10000", "unit": "nM"}, {"measurement": "IC50", "setting": "second compound 0.003 µM", "value": "> 10000", "unit": "nM"}, {"measurement": "IC50", "setting": "second compound 0.00949 µM", "value": "> 10000", "unit": "nM"}, {"measurement": "IC50", "setting": "second compound 0.03 µM", "value": "> 10000", "unit": "nM"}, {"measurement": "IC50", "setting": "second compound 0.0949 µM", "value": "> 10000", "unit": "nM"}, {"measurement": "IC50", "setting": "second compound 0.3 µM", "value": "> 10000", "unit": "nM"}, {"measurement": "viability, T/C", "setting": "second compound 0.000949 µM, first compound 0.0316 µM", "value": 90.6, "unit": "%"}, {"measurement": "viability, T/C", "setting": "second compound 0.000949 µM, first compound 0.1 µM", "value": 83.5, "unit": "%"}, {"measurement": "viability, T/C", "setting": "second compound 0.000949 µM, first compound 0.316 µM", "value": 84.1, "unit": "%"}, {"measurement": "viability, T/C", "setting": "second compound 0.000949 µM, first compound 1 µM", "value": 72.8, "unit": "%"}, {"measurement": "viability, T/C", "setting": "second compound 0.000949 µM, first compound 3.16 µM", "value": 77.5, "unit": "%"}, {"measurement": "viability, T/C", "setting": "second compound 0.000949 µM, first compound 10 µM", "value": 75.7, "unit": "%"}, {"measurement": "viability, T/C", "setting": "second compound 0.003 µM, first compound 0.0316 µM", "value": 82.7, "unit": "%"}, {"measurement": "viability, T/C", "setting": "second compound 0.003 µM, first compound 0.1 µM", "value": 68.7, "unit": "%"}, {"measurement": "viability, T/C", "setting": "second compound 0.003 µM, first compound 0.316 µM", "value": 87.8, "unit": "%"}, {"measurement": "viability, T/C", "setting": "second compound 0.003 µM, first compound 1 µM", "value": 83.6, "unit": "%"}, {"measurement": "viability, T/C", "setting": "second compound 0.003 µM, first compound 3.16 µM", "value": 83.8, "unit": "%"}, {"measurement": "viability, T/C", "setting": "second compound 0.003 µM, first compound 10 µM", "value": 82.8, "unit": "%"}, {"measurement": "viability, T/C", "setting": "second compound 0.00949 µM, first compound 0.0316 µM", "value": 94.3, "unit": "%"}, {"measurement": "viability, T/C", "setting": "second compound 0.00949 µM, first compound 0.1 µM", "value": 80.1, "unit": "%"}, {"measurement": "viability, T/C", "setting": "second compound 0.00949 µM, first compound 0.316 µM", "value": 80.4, "unit": "%"}, {"measurement": "viability, T/C", "setting": "second compound 0.00949 µM, first compound 1 µM", "value": 78.5, "unit": "%"}, {"measurement": "viability, T/C", "setting": "second compound 0.00949 µM, first compound 3.16 µM", "value": 77.2, "unit": "%"}, {"measurement": "viability, T/C", "setting": "second compound 0.00949 µM, first compound 10 µM", "value": 68, "unit": "%"}, {"measurement": "viability, T/C", "setting": "second compound 0.03 µM, first compound 0.0316 µM", "value": 77.1, "unit": "%"}, {"measurement": "viability, T/C", "setting": "second compound 0.03 µM, first compound 0.1 µM", "value": 74.6, "unit": "%"}, {"measurement": "viability, T/C", "setting": "second compound 0.03 µM, first compound 0.316 µM", "value": 94.7, "unit": "%"}, {"measurement": "viability, T/C", "setting": "second compound 0.03 µM, first compound 1 µM", "value": 82.5, "unit": "%"}, {"measurement": "viability, T/C", "setting": "second compound 0.03 µM, first compound 3.16 µM", "value": 90, "unit": "%"}, {"measurement": "viability, T/C", "setting": "second compound 0.03 µM, first compound 10 µM", "value": 63.4, "unit": "%"}, {"measurement": "viability, T/C", "setting": "second compound 0.0949 µM, first compound 0.0316 µM", "value": 85.2, "unit": "%"}, {"measurement": "viability, T/C", "setting": "second compound 0.0949 µM, first compound 0.1 µM", "value": 93.2, "unit": "%"}, {"measurement": "viability, T/C", "setting": "second compound 0.0949 µM, first compound 0.316 µM", "value": 59.9, "unit": "%"}, {"measurement": "viability, T/C", "setting": "second compound 0.0949 µM, first compound 1 µM", "value": 75, "unit": "%"}, {"measurement": "viability, T/C", "setting": "second compound 0.0949 µM, first compound 3.16 µM", "value": 80.7, "unit": "%"}, {"measurement": "viability, T/C", "setting": "second compound 0.0949 µM, first compound 10 µM", "value": 70.4, "unit": "%"}, {"measurement": "viability, T/C", "setting": "second compound 0.3 µM, first compound 0.0316 µM", "value": 78.8, "unit": "%"}, {"measurement": "viability, T/C", "setting": "second compound 0.3 µM, first compound 0.1 µM", "value": 72.9, "unit": "%"}, {"measurement": "viability, T/C", "setting": "second compound 0.3 µM, first compound 0.316 µM", "value": 63.2, "unit": "%"}, {"measurement": "viability, T/C", "setting": "second compound 0.3 µM, first compound 1 µM", "value": 56.9, "unit": "%"}, {"measurement": "viability, T/C", "setting": "second compound 0.3 µM, first compound 3.16 µM", "value": 76.5, "unit": "%"}, {"measurement": "viability, T/C", "setting": "second compound 0.3 µM, first compound 10 µM", "value": 65.3, "unit": "%"}]}, {"smiles": "CCC(CC)c1cc(NC2CCC(N)C2)n2nccc2n1", "note": "(centres undefined) + C=CC(=O)N1CCN(c2nc(OCC3CCCN3C)nc3c(F)c(-c4nc(N)cc(C)c4C(F)(F)F)c(Cl)cc23)C(C)C1", "values": [{"measurement": "IC50", "setting": "second compound 0.00316 µM", "value": 1540, "unit": "nM"}, {"measurement": "IC50", "setting": "second compound 0.01 µM", "value": 1450, "unit": "nM"}, {"measurement": "IC50", "setting": "second compound 0.0316 µM", "value": 1460, "unit": "nM"}, {"measurement": "IC50", "setting": "second compound 0.1 µM", "value": 1680, "unit": "nM"}, {"measurement": "IC50", "setting": "second compound 0.316 µM", "value": 1510, "unit": "nM"}, {"measurement": "IC50", "setting": "second compound 1 µM", "value": 1460, "unit": "nM"}, {"measurement": "viability, T/C", "setting": "second compound 0.00316 µM, first compound 0.0316 µM", "value": 103, "unit": "%"}, {"measurement": "viability, T/C", "setting": "second compound 0.00316 µM, first compound 0.1 µM", "value": 101, "unit": "%"}, {"measurement": "viability, T/C", "setting": "second compound 0.00316 µM, first compound 0.316 µM", "value": 102, "unit": "%"}, {"measurement": "viability, T/C", "setting": "second compound 0.00316 µM, first compound 1 µM", "value": 78.5, "unit": "%"}, {"measurement": "viability, T/C", "setting": "second compound 0.00316 µM, first compound 3.16 µM", "value": 3.09, "unit": "%"}, {"measurement": "viability, T/C", "setting": "second compound 0.00316 µM, first compound 10 µM", "value": 0.53, "unit": "%"}, {"measurement": "viability, T/C", "setting": "second compound 0.01 µM, first compound 0.0316 µM", "value": 111, "unit": "%"}, {"measurement": "viability, T/C", "setting": "second compound 0.01 µM, first compound 0.1 µM", "value": 98.3, "unit": "%"}, {"measurement": "viability, T/C", "setting": "second compound 0.01 µM, first compound 0.316 µM", "value": 77.1, "unit": "%"}, {"measurement": "viability, T/C", "setting": "second compound 0.01 µM, first compound 1 µM", "value": 72.9, "unit": "%"}, {"measurement": "viability, T/C", "setting": "second compound 0.01 µM, first compound 3.16 µM", "value": 3.14, "unit": "%"}, {"measurement": "viability, T/C", "setting": "second compound 0.01 µM, first compound 10 µM", "value": 0.53, "unit": "%"}, {"measurement": "viability, T/C", "setting": "second compound 0.0316 µM, first compound 0.0316 µM", "value": 101, "unit": "%"}, {"measurement": "viability, T/C", "setting": "second compound 0.0316 µM, first compound 0.1 µM", "value": 103, "unit": "%"}, {"measurement": "viability, T/C", "setting": "second compound 0.0316 µM, first compound 0.316 µM", "value": 103, "unit": "%"}, {"measurement": "viability, T/C", "setting": "second compound 0.0316 µM, first compound 1 µM", "value": 72.9, "unit": "%"}, {"measurement": "viability, T/C", "setting": "second compound 0.0316 µM, first compound 3.16 µM", "value": 2.99, "unit": "%"}, {"measurement": "viability, T/C", "setting": "second compound 0.0316 µM, first compound 10 µM", "value": 0.57, "unit": "%"}, {"measurement": "viability, T/C", "setting": "second compound 0.1 µM, first compound 0.0316 µM", "value": 97.7, "unit": "%"}, {"measurement": "viability, T/C", "setting": "second compound 0.1 µM, first compound 0.1 µM", "value": 104, "unit": "%"}, {"measurement": "viability, T/C", "setting": "second compound 0.1 µM, first compound 0.316 µM", "value": 93.3, "unit": "%"}, {"measurement": "viability, T/C", "setting": "second compound 0.1 µM, first compound 1 µM", "value": 88.8, "unit": "%"}, {"measurement": "viability, T/C", "setting": "second compound 0.1 µM, first compound 3.16 µM", "value": 3.12, "unit": "%"}, {"measurement": "viability, T/C", "setting": "second compound 0.1 µM, first compound 10 µM", "value": 0.5, "unit": "%"}, {"measurement": "viability, T/C", "setting": "second compound 0.316 µM, first compound 0.0316 µM", "value": 87.8, "unit": "%"}, {"measurement": "viability, T/C", "setting": "second compound 0.316 µM, first compound 0.1 µM", "value": 93.5, "unit": "%"}, {"measurement": "viability, T/C", "setting": "second compound 0.316 µM, first compound 0.316 µM", "value": 95.3, "unit": "%"}, {"measurement": "viability, T/C", "setting": "second compound 0.316 µM, first compound 1 µM", "value": 76.2, "unit": "%"}, {"measurement": "viability, T/C", "setting": "second compound 0.316 µM, first compound 3.16 µM", "value": 3.3, "unit": "%"}, {"measurement": "viability, T/C", "setting": "second compound 0.316 µM, first compound 10 µM", "value": 0.53, "unit": "%"}, {"measurement": "viability, T/C", "setting": "second compound 1 µM, first compound 0.0316 µM", "value": 94.8, "unit": "%"}, {"measurement": "viability, T/C", "setting": "second compound 1 µM, first compound 0.1 µM", "value": 110, "unit": "%"}, {"measurement": "viability, T/C", "setting": "second compound 1 µM, first compound 0.316 µM", "value": 89.6, "unit": "%"}, {"measurement": "viability, T/C", "setting": "second compound 1 µM, first compound 1 µM", "value": 73.3, "unit": "%"}, {"measurement": "viability, T/C", "setting": "second compound 1 µM, first compound 3.16 µM", "value": 2.65, "unit": "%"}, {"measurement": "viability, T/C", "setting": "second compound 1 µM, first compound 10 µM", "value": 0.64, "unit": "%"}]}]}
